Results as given in patent US8513202B2, “Crystalline form of 1-(β-D-glucopyranosyl)-4-methyl-3-[5-(4-fluorophenyl)-2-thienylmethyl]benzene hemihydrate” (Mitsubishi Tanabe Pharma Corporation, priority 2006, dated 2013).

Assay: stability of the crystalline form compared with the amorphous form
Format: physicochemical
Details: compared with the amorphous form of the compound of formula (I); test conditions not given

stability: more stable than the amorphous form
SMILES: Cc1ccc([C@@H]2O[C@H](CO)[C@@H](O)[C@H](O)[C@H]2O)cc1Cc1ccc(-c2ccc(F)cc2)s1 [1-(β-D-glucopyranosyl)-4-methyl-3-[5-(4-fluorophenyl)-2-thienylmethyl]benzene hemihydrate]
